“And” between values parts separate entries of the source, which are not always exact repeats. Equal values may be shown once. Read-outs that look alike come from different tables or passages of the source.
Columns and labels:
[1] = biological target: T1, EP2 E23A (Homo sapiens, UniProt P43116, E23A); experiment: GloSensor cAMP assay, antagonism of PGE2-induced cAMP; format: cell-based
T1 construct: The full-length EP2 or EP4 was cloned into the pcDNA3.1 vector; FLAG (N); expressed in transfected cells; host or cells: AD293 cells
T1 sequence (P43116 whole entry E23A): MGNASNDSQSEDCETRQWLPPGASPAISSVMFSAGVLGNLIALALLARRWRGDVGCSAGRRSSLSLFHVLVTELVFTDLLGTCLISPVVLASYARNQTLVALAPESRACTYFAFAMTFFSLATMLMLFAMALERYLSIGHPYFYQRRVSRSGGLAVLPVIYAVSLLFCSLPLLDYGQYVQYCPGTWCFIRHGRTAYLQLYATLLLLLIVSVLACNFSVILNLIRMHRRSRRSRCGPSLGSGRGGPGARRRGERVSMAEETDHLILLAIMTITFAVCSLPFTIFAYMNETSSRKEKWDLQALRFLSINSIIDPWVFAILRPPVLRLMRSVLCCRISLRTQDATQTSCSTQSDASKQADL
How it was run: (§1)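 Read-out is GloSensor luminescence from AD293 cells co-expressing FLAG-tagged EP2 variant and GloSensor22F biosensor, transfected at a 1:1 plasmid ratio. Cells were plated at 4000 per well in CO2-independent medium containing 2% cAMP reagent, incubated 1 h at 37 °C, then read.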

[2] = biological target: T2, EP2 M116A (Homo sapiens, UniProt P43116, M116A); experiment: as above; format: cell-based; details: for cAMP activity (∆pIC50 from EP2 WT): TG6-129, M116A
T2 construct: The full-length EP2 or EP4 was cloned into the pcDNA3.1 vector; FLAG (N); expressed in transfected cells; host or cells: AD293 cells
T2 sequence (P43116 whole entry M116A): as the sequence (P43116 whole entry E23A) above, with A23E, M116A counted along it
How it was run: as §1

[3] = biological target: T3, EP2 S28A (Homo sapiens, UniProt P43116, S28A); experiment: as above; format: cell-based; details: for cAMP activity (∆pIC50 from EP2 WT): TG6-129, S28A
T3 construct: The full-length EP2 or EP4 was cloned into the pcDNA3.1 vector; FLAG (N); expressed in transfected cells; host or cells: AD293 cells
T3 sequence (P43116 whole entry S28A): as the sequence (P43116 whole entry E23A) above, with A23E, S28A counted along it
How it was run: as §1

[4] = biological target: T4, EP2 W186A (Homo sapiens, UniProt P43116, W186A); experiment: as above; format: cell-based
T4 construct: The full-length EP2 or EP4 was cloned into the pcDNA3.1 vector; FLAG (N); expressed in transfected cells; host or cells: AD293 cells
T4 sequence (P43116 whole entry W186A): as the sequence (P43116 whole entry E23A) above, with A23E, W186A counted along it
How it was run: as §1

[5] = biological target: T5, EP4 I317A (Homo sapiens, UniProt P35408, I317A); experiment: as above; format: cell-based; details: for cAMP activity (∆pIC50 from EP4 WT): TG6-129, I317A
T5 construct: The full-length EP2 or EP4 was cloned into the pcDNA3.1 vector; FLAG (N); expressed in transfected cells; host or cells: AD293 cells
T5 sequence (P35408 whole entry I317A): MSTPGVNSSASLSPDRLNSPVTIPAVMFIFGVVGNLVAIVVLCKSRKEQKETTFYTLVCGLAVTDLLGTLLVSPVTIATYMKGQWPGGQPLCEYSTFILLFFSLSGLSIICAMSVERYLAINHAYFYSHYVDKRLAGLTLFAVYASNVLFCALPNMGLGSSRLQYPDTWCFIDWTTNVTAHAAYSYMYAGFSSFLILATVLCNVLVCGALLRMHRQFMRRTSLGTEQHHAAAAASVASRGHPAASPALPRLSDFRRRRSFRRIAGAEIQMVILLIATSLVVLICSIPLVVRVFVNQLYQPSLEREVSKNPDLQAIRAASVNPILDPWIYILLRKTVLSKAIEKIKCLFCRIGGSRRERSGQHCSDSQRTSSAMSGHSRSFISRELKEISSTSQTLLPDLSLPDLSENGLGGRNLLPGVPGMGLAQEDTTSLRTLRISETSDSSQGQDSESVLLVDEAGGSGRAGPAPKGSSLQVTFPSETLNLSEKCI

[6] = biological target: T6, constitutively active EP2 E23A (Homo sapiens, UniProt P43116, E23A); experiment: GloSensor cAMP assay, inhibition of constitutive activity; format: cell-based
T6 construct: The full-length EP2 or EP4 was cloned into the pcDNA3.1 vector; FLAG (N); expressed in transfected cells; host or cells: AD293 cells
T6 sequence (P43116 whole entry E23A): as the sequence (P43116 whole entry E23A) above
How it was run: as §1

[7] = biological target: T7, constitutively active EP2 S28A (Homo sapiens, UniProt P43116, S28A); experiment: as above; format: cell-based
T7 construct: The full-length EP2 or EP4 was cloned into the pcDNA3.1 vector; FLAG (N); expressed in transfected cells; host or cells: AD293 cells
T7 sequence (P43116 whole entry S28A): as the sequence (P43116 whole entry E23A) above, with A23E, S28A counted along it
How it was run: as §1

[8] = biological target: T8, constitutively active EP4 I317A (Homo sapiens, UniProt P35408, I317A); experiment: as above; format: cell-based
T8 construct: The full-length EP2 or EP4 was cloned into the pcDNA3.1 vector (Invitrogen), incorporating an N-terminal FLAG tag; expressed in transfected cells; host or cells: AD293
T8 sequence (P35408 whole entry I317A): as the sequence (P35408 whole entry I317A) above

[9] = biological target: EP2; parameters: method as in Ganesh et al, 2013; details: antagonism towards EP2; ref Ganesh et al, 2013; cited from earlier work
[10] = biological target: EP4; parameters: method as in Ganesh et al, 2013; details: antagonism towards EP4; ref Ganesh et al, 2013; cited from earlier work
[11] = 1 h, TG6-129 log([M]) -12, read-out: % cAMP activity (normalized to WT)
[12] = 1 h, TG6-129 log([M]) -11, read-out: % cAMP activity (normalized to WT)
[13] = no PGE2, pIC50 mutant - pIC50 WT, mean

SMILES: CCc1nnc(NS(=O)(=O)c2ccc(NC(=S)NC(=O)/C=C/c3ccc(F)cc3)cc2)s1 [TG6-129]
- IC50 [1]: 20.4 nM
- remaining activity at 1 pM [1, 11]: 74.1%
- cAMP activity (∆pIC50 from EP2 WT) ([1]; TG6-129, E23A, Mean): 0.563
- IC50 [2]: 513 nM
- cAMP activity (∆pIC50 from EP2 WT) ([2]; Mean): -0.947
- cAMP activity (∆pIC50 from EP2 WT) ([2]; single experiments 1st-3rd): -0.910 and -0.955 and -0.975
- IC50 [3]: 36.3 nM
- remaining activity at 10 pM [3, 12]: 109%
- remaining activity at 1 pM [3, 11]: 106%
- cAMP activity (∆pIC50 from EP2 WT) ([3]; Mean): 0.282
- cAMP activity (∆pIC50 from EP2 WT) ([3]; single experiments 1st-3rd): 0.159 and 0.319 and 0.367
- IC50 [4]: 2000 nM
- remaining activity at 1 µM ([4]; 1 h, TG6-129 log([M]) -6, read-out: % cAMP activity (normalized to WT)): 12.3%
- remaining activity at 0.1 µM ([4]; 1 h, TG6-129 log([M]) -7, read-out: % cAMP activity (normalized to WT)): 14.9%
- remaining activity at 0.01 µM ([4]; 1 h, TG6-129 log([M]) -8, read-out: % cAMP activity (normalized to WT)): 13.9%
- remaining activity at 0.001 µM ([4]; 1 h, TG6-129 log([M]) -9, read-out: % cAMP activity (normalized to WT)): 12.1%
- remaining activity at 0.0001 µM ([4]; 1 h, TG6-129 log([M]) -10, read-out: % cAMP activity (normalized to WT)): 12.9%
- remaining activity at 10 pM [4, 12]: 15.2%
- remaining activity at 1 pM [4, 11]: 12.4%
- cAMP activity (∆pIC50 from EP2 WT) ([4]; TG6-129, W186A, Mean): -1.790
- IC50 [5]: 10700 nM
- remaining activity at 100 µM ([5]; 1 h, TG6-129 log([M]) -4.00, read-out: % cAMP activity (normalized to WT)): 16.3%
- remaining activity at […] ([5]; 1 h, TG6-129 log([M]) -4.70, read-out: % cAMP activity (normalized to WT)): 19.5%
- remaining activity at […] ([5]; 1 h, TG6-129 log([M]) -5.40, read-out: % cAMP activity (normalized to WT)): 47.7%
- remaining activity at […] ([5]; 1 h, TG6-129 log([M]) -6.10, read-out: % cAMP activity (normalized to WT)): 54.4%
- remaining activity at 0.1585 µM ([5]; 1 h, TG6-129 log([M]) -6.80, read-out: % cAMP activity (normalized to WT)): 59.7%
- remaining activity at 0.03236 µM ([5]; 1 h, TG6-129 log([M]) -7.49, read-out: % cAMP activity (normalized to WT)): 57.3%
- remaining activity at 0.006457 µM ([5]; 1 h, TG6-129 log([M]) -8.19, read-out: % cAMP activity (normalized to WT)): 60.6%
- remaining activity at 0.001288 µM ([5]; 1 h, TG6-129 log([M]) -8.89, read-out: % cAMP activity (normalized to WT)): 53.5%
- cAMP activity (∆pIC50 from EP4 WT) ([5]; Mean): 0.074
- cAMP activity (∆pIC50 from EP4 WT) ([5]; single experiments 1st-3rd): 0.047 and -0.037 and 0.211
- IC50 [6]: 31.6 nM
- remaining activity at 10 µM ([6]; 1 h, TG6-129 log([M]) -5, EP2-E23A, read-out: % cAMP activity (normalized to WT)): 5.62%
- remaining activity at 1 µM ([6]; 1 h, TG6-129 log([M]) -6, EP2-E23A, read-out: % cAMP activity (normalized to WT)): 4.15%
- remaining activity at 0.1 µM ([6]; 1 h, TG6-129 log([M]) -7, EP2-E23A, read-out: % cAMP activity (normalized to WT)): 17.9%
- remaining activity at 0.001 µM ([6]; 1 h, TG6-129 log([M]) -9, EP2-E23A, read-out: % cAMP activity (normalized to WT)): 93.8%
- remaining activity at 0.0001 µM ([6]; 1 h, TG6-129 log([M]) -10, EP2-E23A, read-out: % cAMP activity (normalized to WT)): 108%
- remaining activity at 10 pM ([6]; 1 h, TG6-129 log([M]) -11, EP2-E23A, read-out: % cAMP activity (normalized to WT)): 111%
- remaining activity at 1 pM ([6]; 1 h, TG6-129 log([M]) -12, EP2-E23A, read-out: % cAMP activity (normalized to WT)): 98%
- TG6-129 cAMP activity (∆pIC50 from EP2 WT), Mean ([6]; E23A, Mean): 0.363
- TG6-129 cAMP activity (∆pIC50 from EP2 WT) ([6]; E23A, single experiments 1st-3rd): 0.381 and 0.341 and 0.367
- ΔpIC50 [6, 13]: 0.36 ± 0.01
- IC50 [7]: 38.9 nM
- remaining activity at 10 µM ([7]; 1 h, TG6-129 log([M]) -5, EP2-S28A, read-out: % cAMP activity (normalized to WT)): 8.3%
- remaining activity at 1 µM ([7]; 1 h, TG6-129 log([M]) -6, EP2-S28A, read-out: % cAMP activity (normalized to WT)): 8.69%
- remaining activity at 0.001 µM ([7]; 1 h, TG6-129 log([M]) -9, EP2-S28A, read-out: % cAMP activity (normalized to WT)): 255%
- TG6-129 cAMP activity (∆pIC50 from EP2 WT), Mean ([7]; S28A, Mean): 0.422
- TG6-129 cAMP activity (∆pIC50 from EP2 WT) ([7]; S28A, single experiments 1st-3rd): 0.401 and 0.405 and 0.460
- ΔpIC50 [7, 13]: 0.42 ± 0.02
- IC50 [8]: 3550 nM
- remaining activity at 100 µM ([8]; 1 h, TG6-129 log([M]) -4.00, EP4-I317A, read-out: % cAMP activity (normalized to WT)): 6.11%
- remaining activity at […] ([8]; 1 h, TG6-129 log([M]) -4.70, EP4-I317A, read-out: % cAMP activity (normalized to WT)): 11.7%
- remaining activity at […] ([8]; 1 h, TG6-129 log([M]) -5.40, EP4-I317A, read-out: % cAMP activity (normalized to WT)): 33.6%
- remaining activity at […] ([8]; 1 h, TG6-129 log([M]) -6.10, EP4-I317A, read-out: % cAMP activity (normalized to WT)): 68.9%
- remaining activity at 0.1585 µM ([8]; 1 h, TG6-129 log([M]) -6.80, EP4-I317A, read-out: % cAMP activity (normalized to WT)): 80.8%
- remaining activity at 0.03236 µM ([8]; 1 h, TG6-129 log([M]) -7.49, EP4-I317A, read-out: % cAMP activity (normalized to WT)): 80.3%
- remaining activity at 0.006457 µM ([8]; 1 h, TG6-129 log([M]) -8.19, EP4-I317A, read-out: % cAMP activity (normalized to WT)): 83%
- remaining activity at 0.001288 µM ([8]; 1 h, TG6-129 log([M]) -8.89, EP4-I317A, read-out: % cAMP activity (normalized to WT)): 79.7%
- TG6-129 cAMP activity (∆pIC50 from EP4 WT), Mean ([8]; I317A, Mean): 0.256
- ΔpIC50 [8, 13]: 0.26 ± 0.11
- Kd [9]: 8.8 nM
- Kd [10]: 3900 nM

Source: PMC12669672, “Structural insights into selective and dual antagonism of EP2 and EP4 prostaglandin receptors” (The EMBO Journal, 2025)
